This note sets out measurements from patent US9758559B2, “Short peptides derived from VDAC1, compositions and methods of use thereof” (B.G. NEGEV TECHNOLOGIES AND APPLICATIONS LTD., AT …, priority 2013, dated 2017).

Where a SMILES comes first, the peptide text is derived from it. [ ]: non-standard residue; d: D form. A value given as a limit tells only on which side of the number the result lay.

Format in all cases: cell-based
Experiment [1] relates to MEC-1 cells. The note with it: 90 min incubation, serum-free medium, PI staining, FACS, read-out: IC50, induction of cell death, MEC-1. As for the experimental part:
MEC-1, MO1043 and T-Rex-293 cells were grown in DMEM supplemented with 10% FCS, 2 mM L-glutamine, 1000 U/ml penicillin and 1 mg/ml streptomycin, U-87, C6 and PC3 were maintained in RPMI 1640 supplemented with 10-20% FCS, 2 mM L-glutamine, 1000 U/ml penicillin and 1 mg/ml streptomycin. All cells were maintained in a humidified atmosphere with 5% CO2 at 37° C.
PBMCs (4×10^5 or 8×10^5 cells/sample) were incubated in 200 μl serum-free medium with the examined peptide for 90 min at room temperature and centrifuged (500×g, 5 min) Cell death was analyzed by PI staining and flow cytometer (Beckton-Dickinson) and BD Cell Quest Pro software. Apoptotic cell death was also analyzed by PI and annexin V-FITC staining (Zaid H et al. 2005. 12:751-760), and by acridine orange and ethidium bromide staining and confocal microscopy (Olympus 1×81).
To optimize the VDAC1 N-terminal derived peptides with respect to stability, length and specific targeting to cancer cells, several versions of these peptides were designed and tested for their efficacy in inducing the death of CLL-derived lymphocytes and MEC-1 cells (Table 3). Cells were incubated for 90 min with increasing concentrations of the indicated peptide and death was analyzed by PI stating and FACS as described hereinabove. As is clearly shown in FIG. 1 (and Table 3), deleting 6 residues from the C-terminus of the peptide, including the GXXXG motif, yielded a non-active peptide (peptide Δ(21-26) N-Ter-Antp, SEQ ID NO:22).

The test system of experiment [2] is human neuroblastoma cells (SH-SY5Y). Kind of experiment: Cell death of SH-SY5Y cells, PI staining and flow cytometry. The conditions noted are these: 6 h, serum-free medium, PI-positive cells. As for the experimental part:
The efficacy of the peptide comprising amino acids […] of the N-terminal domain of VDAC1, synthesized with D-amino acids (all D-stereomeric peptide) conjugated to the Antp sequence also synthesized from D-amino acids as a CPP (D-Δ(1-14) N-Ter-Antp, SEQ ID NO:9) was further examined for its activity of inducing cell death with brain tumor derived cell lines. Human primary glioblastoma cells (U-87), human neuroblastoma cells (SH-SY5Y) and rat glioblastoma cells (C6) were incubated (4×10^5 cells) for 6 h in a serum-free-medium containing different concentrations of D-Δ1-14N-Ter-Antp (SEQ ID NO:9). The previously disclosed LP4 peptide conjugated to Tf (Tf-D-LP4 peptide, SEQ ID NO:20) was used as a reference of activity. At the end of the incubation time the cells were stained with PI and the level of cell death, reflected by the percentage of PI-positive cells, was determined by flow cytometry.

Experiment [3] has as its system T-Rex-293 cells. An excerpt: (§1) Data represent mean values, n=3.
(§2) It was previously disclosed that peptide Antp-LP4 (SEQ ID NO:23) derived from another part of VDAC1, selectively induce cell death of cancerous cells co-expressing the cell surface markers CD19 and CD5 (U.S. Pat. No. 8,648,045) as well as other cancer cells as HeLa.

In experiment [4] the test system is human prostate cancer cell lines (PC3).
Excerpt: as §1, §2

Experiment [5] has as its target T1, Mitochondria-Bound Hexokinase 1 (HK-1) (Rattus norvegicus, UniProt P05708).
T1 construct: expressed in transfected cells; host or cells: HeLa cells
T1 sequence (P05708 1-918): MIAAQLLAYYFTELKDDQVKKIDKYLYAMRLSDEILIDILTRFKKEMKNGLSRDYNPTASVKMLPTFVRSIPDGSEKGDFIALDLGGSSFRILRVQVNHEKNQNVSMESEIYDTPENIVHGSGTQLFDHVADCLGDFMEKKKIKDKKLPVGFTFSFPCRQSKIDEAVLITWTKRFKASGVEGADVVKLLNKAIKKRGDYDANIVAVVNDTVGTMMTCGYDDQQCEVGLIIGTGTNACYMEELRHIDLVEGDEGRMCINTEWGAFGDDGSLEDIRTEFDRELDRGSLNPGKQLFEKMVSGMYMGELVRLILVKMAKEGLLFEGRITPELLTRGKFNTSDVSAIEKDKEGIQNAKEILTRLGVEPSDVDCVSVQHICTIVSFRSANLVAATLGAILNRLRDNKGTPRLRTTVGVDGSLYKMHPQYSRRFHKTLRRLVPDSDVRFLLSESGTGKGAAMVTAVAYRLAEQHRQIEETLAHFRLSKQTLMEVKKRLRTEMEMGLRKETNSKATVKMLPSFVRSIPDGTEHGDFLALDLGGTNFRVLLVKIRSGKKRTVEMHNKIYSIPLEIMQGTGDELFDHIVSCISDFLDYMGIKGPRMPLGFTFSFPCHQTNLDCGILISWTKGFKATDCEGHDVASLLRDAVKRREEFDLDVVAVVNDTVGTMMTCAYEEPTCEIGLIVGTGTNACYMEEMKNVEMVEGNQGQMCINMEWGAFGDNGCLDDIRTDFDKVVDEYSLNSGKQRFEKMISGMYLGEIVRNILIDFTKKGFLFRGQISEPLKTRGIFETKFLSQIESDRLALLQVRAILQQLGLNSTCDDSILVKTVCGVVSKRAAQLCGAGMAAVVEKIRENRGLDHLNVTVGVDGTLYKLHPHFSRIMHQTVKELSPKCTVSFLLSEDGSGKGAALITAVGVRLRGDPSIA
Kind of experiment: Detachment of mitochondria-bound HK-1-GFP in HeLa cells (confocal microscopy). The note with it: HeLa cells expressing HK-1-GFP, 6 h. The protocol: To visualize HK detachment induced by the D-Δ(1-14) N-terminal-Antp peptide, HeLa cells (3×10^5) were grown on Poly-D-Lysine (PDL)-coated coverslips in a 60 mm dish and transfected with pEGFP-HK-I or with plasmid pEGFP. HK-I-GFP fusion protein, in which GFP was connected to the HK-I C-terminal (pEGFP-HK-I), was constructed using an EcoR1 restriction site to introduce GFP into the 3′ (at the stop codon) of HK1 in plasmid pcDNA3.1 by site-directed mutagenesis with overlapping PCR amplification, using the following primers: 5′-[…]-3; (forward, SEQ ID NO:24) and 5′-[…]-3; (reverse, SEQ ID NO:25).
After 48 h, cells were incubated for 6 h with a serum-free medium containing 0.4% DMSO or with the indicated concentration of D-Δ(1-14) N-Ter-Antp peptide. Cells were washed with PBS, fixed for 20 min with 4% paraformaldehyde prepared in PBS, rinsed for 30 min in PBS and cell imaging was carried out by confocal microscopy (Olympus 1×81).

For `CC[C@@H](C)[C@@H](NC(=O)[C@@H](CCCCN)NC(=O)[C@H](NC(=O)[C@@H](CCC(N)=O)NC(=O)[C@@H](CCCNC(=N)N)NC(=O)[C@@H](CC(C)C)NC(=O)CNC(=O)[C@@H](Cc1ccccc1)NC(=O)CNC(=O)[C@@H](Cc1ccc(O)cc1)NC(=O)CNC(=O)[C@@H](CCCCN)NC(=O)[C@H](NC(=O)[C@@H](Cc1ccccc1)NC(=O)[C@H](NC(=O)[C@@H](CC(=O)O)NC(=O)[C@H](N)CCCNC(=N)N)C(C)C)[C@H](C)O)[C@H](C)CC)C(=O)N[C@H](Cc1c[nH]c2ccccc12)C(=O)N[C@H](Cc1ccccc1)C(=O)N[C@H](CCC(N)=O)C(=O)N[C@H](CC(N)=O)C(=O)N[C@H](CCCNC(=N)N)C(=O)N[C@H](CCCNC(=N)N)C(=O)N[C@H](CCSC)C(=O)N[C@H](CCCCN)C(=O)N[C@H](Cc1c[nH]c2ccccc12)C(=O)N[C@H](CCCCN)C(=O)N[C@H](CCCCN)C(=O)O` [D-Δ(1-14) N-Ter-Antp, ALL D-RDVFTKGYGFGL RQIKIWFQNRRMKWKK] (H-[dR][dD][dV][dF][dT][dK]G[dY]G[dF]G[dL][dR][dQ][dI][dK][dI][dW][dF][dQ][dN][dR][dR][dM][dK][dW][dK][dK]-OH), the IC50 is 2100 ± 300 nM in experiment [1]; 2050 nM in experiment [2]; > 14300 nM in experiment [3] (non-malignant cells TRex-293, read-out: IC50, cell death, non-malignant cells TRex-293); 1510 nM in experiment [4] (prostate cell line PC3, read-out: IC50, cancer cell death, PC3). Moreover, the “induction of cell death, in words” value in experiment [3] (T-Rex-293 control cells) is reported as “some induction of cell death”; in experiment [4] (PC3 cells), “dramatic cell death”. In addition, the “HK-1-GFP detachment from the mitochondria” value in experiment [5] is “diffusion of HK-1-GFP out into the cytosol is observed”.
